Data taken from PubChem BioAssay (NCI).
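All cell lines were grown in 96-well plates and treated with compound for 48 hours. GI50 marks 50% less growth. TGI: concentration producing complete growth inhibition.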

How the values were obtained:
Test in all cases: growth of human tumour cells (NCI), 48 h
COLO 205 colon = tested on: COLO 205 colon
SK-OV-3 ovarian = tested on: SK-OV-3 ovarian
MALME-3M melanoma = tested on: MALME-3M melanoma
HS 578T breast = tested on: HS 578T breast
RPMI-8226 leukemia = tested on: RPMI-8226 leukemia
IGROV1 ovarian = tested on: IGROV1 ovarian
SK-MEL-2 melanoma = tested on: SK-MEL-2 melanoma
SK-MEL-28 melanoma = tested on: SK-MEL-28 melanoma
MDA-MB-435 = tested on: MDA-MB-435
TK-10 renal = tested on: TK-10 renal
M14 melanoma = tested on: M14 melanoma
CCRF-CEM leukemia = tested on: CCRF-CEM leukemia
UO-31 renal = tested on: UO-31 renal
HOP-92 NSCLC = tested on: HOP-92 NSCLC
NCI-H522 lung = tested on: NCI-H522 lung
SW-620 colon = tested on: SW-620 colon
HL-60(TB) leukemia = tested on: HL-60(TB) leukemia
SNB-19 CNS = tested on: SNB-19 CNS
LOX IMVI melanoma = tested on: LOX IMVI melanoma
HT29 colon = tested on: HT29 colon
OVCAR-8 ovarian = tested on: OVCAR-8 ovarian
EKVX NSCLC = tested on: EKVX NSCLC
SF-268 CNS = tested on: SF-268 CNS
OVCAR-4 ovarian = tested on: OVCAR-4 ovarian
MDA-MB-231 breast = tested on: MDA-MB-231 breast
U251 CNS = tested on: U251 CNS
UACC-257 melanoma = tested on: UACC-257 melanoma
SF-539 CNS = tested on: SF-539 CNS
NCI-H226 lung = tested on: NCI-H226 lung
HCT-15 colon = tested on: HCT-15 colon
SF-295 CNS = tested on: SF-295 CNS
SK-MEL-5 melanoma = tested on: SK-MEL-5 melanoma
RXF 393 renal = tested on: RXF 393 renal
A498 renal = tested on: A498 renal
NCI-H460 lung = tested on: NCI-H460 lung
ACHN renal = tested on: ACHN renal
UACC-62 melanoma = tested on: UACC-62 melanoma
KM12 colon = tested on: KM12 colon
A549 NSCLC = tested on: A549 NSCLC
NCI/ADR-RES ovarian = tested on: NCI/ADR-RES ovarian
T-47D breast = tested on: T-47D breast
SR leukemia = tested on: SR leukemia
K-562 leukemia = tested on: K-562 leukemia
PC-3 prostate = tested on: PC-3 prostate
HCT-116 colon = tested on: HCT-116 colon
NCI-H23 lung = tested on: NCI-H23 lung
HOP-62 NSCLC = tested on: HOP-62 NSCLC
OVCAR-3 ovarian = tested on: OVCAR-3 ovarian
OVCAR-5 ovarian = tested on: OVCAR-5 ovarian
786-0 renal = tested on: 786-0 renal
DU-145 prostate = tested on: DU-145 prostate
MCF7 breast = tested on: MCF7 breast
BT-549 breast = tested on: BT-549 breast
HCC-2998 colon = tested on: HCC-2998 colon
MOLT-4 leukemia = tested on: MOLT-4 leukemia
CAKI-1 renal = tested on: CAKI-1 renal
SN12C renal = tested on: SN12C renal

Work on `COc1ccc2[nH]cc(-c3nc(N)nnc3-c3cn(C)c4ccc(Br)cc34)c2c1` yielded a GI50 (COLO 205 colon) of 3.48 µM, a TGI (COLO 205 colon) of 12.6 µM and a GI50 (SK-OV-3 ovarian) of 4.29 µM. It also gave a TGI (SK-OV-3 ovarian) of 32.2 µM, a GI50 (MALME-3M melanoma) of 3.36 µM and a TGI (MALME-3M melanoma) of 19.8 µM. The GI50 (HS 578T breast) was 2.3 µM, the TGI (HS 578T breast) was 8.63 µM and the GI50 (RPMI-8226 leukemia) was 3.51 µM. The TGI (RPMI-8226 leukemia) was > 100 µM, the GI50 (IGROV1 ovarian) was 2.89 µM and the TGI (IGROV1 ovarian) was 17.1 µM. The GI50 (SK-MEL-2 melanoma) was 4.02 µM, the TGI (SK-MEL-2 melanoma) was 20.8 µM and the GI50 (SK-MEL-28 melanoma) was 6.81 µM. The TGI (SK-MEL-28 melanoma) was 22.2 µM, the GI50 (MDA-MB-435) was 0.414 µM and the TGI (MDA-MB-435) was 1.76 µM. It also gave a GI50 (TK-10 renal) of 6.45 µM, a TGI (TK-10 renal) of 60.2 µM and a GI50 (M14 melanoma) of 2.66 µM. For the same compound, the TGI (M14 melanoma) was 12.4 µM, the GI50 (CCRF-CEM leukemia) was 3.57 µM and the TGI (CCRF-CEM leukemia) was > 100 µM. It also gave a GI50 (UO-31 renal) of 2.31 µM, a TGI (UO-31 renal) of 17.5 µM and a GI50 (HOP-92 NSCLC) of 2.58 µM. The TGI (HOP-92 NSCLC) was 17.3 µM, the GI50 (NCI-H522 lung) was 2.4 µM and the TGI (NCI-H522 lung) was 15.4 µM. It also gave a GI50 (SW-620 colon) of 3.85 µM, a TGI (SW-620 colon) of 22.4 µM and a GI50 (HL-60(TB) leukemia) of 3.41 µM. The TGI (HL-60(TB) leukemia) was > 100 µM, the GI50 (SNB-19 CNS) was 4.09 µM and the TGI (SNB-19 CNS) was 20.1 µM. For the same compound, the GI50 (LOX IMVI melanoma) was 3.89 µM, the TGI (LOX IMVI melanoma) was 19.9 µM and the GI50 (HT29 colon) was 2.69 µM. For the same compound, the TGI (HT29 colon) was 12.1 µM, the GI50 (OVCAR-8 ovarian) was 4.37 µM and the TGI (OVCAR-8 ovarian) was > 100 µM. It also gave a GI50 (EKVX NSCLC) of 3.95 µM, a TGI (EKVX NSCLC) of 30.2 µM and a GI50 (SF-268 CNS) of 5.87 µM. It also gave a TGI (SF-268 CNS) of 36.1 µM, a GI50 (OVCAR-4 ovarian) of 4.61 µM and a TGI (OVCAR-4 ovarian) of 84 µM. The GI50 (MDA-MB-231 breast) was 4.48 µM, the TGI (MDA-MB-231 breast) was 28.3 µM and the GI50 (U251 CNS) was 3.82 µM. It also gave a TGI (U251 CNS) of 26.4 µM, a GI50 (UACC-257 melanoma) of 12.4 µM and a TGI (UACC-257 melanoma) of 46.2 µM. For the same compound, the GI50 (SF-539 CNS) was 3.11 µM, the TGI (SF-539 CNS) was 12 µM and the GI50 (NCI-H226 lung) was 4.29 µM. For the same compound, the TGI (NCI-H226 lung) was 39.8 µM, the GI50 (HCT-15 colon) was 2.86 µM and the TGI (HCT-15 colon) was 22 µM. It also gave a GI50 (SF-295 CNS) of 2.8 µM, a TGI (SF-295 CNS) of 13 µM and a GI50 (SK-MEL-5 melanoma) of 2.58 µM. The TGI (SK-MEL-5 melanoma) was 8.5 µM, the GI50 (RXF 393 renal) was 1.8 µM and the TGI (RXF 393 renal) was 4.68 µM. For the same compound, the GI50 (A498 renal) was 2.11 µM, the TGI (A498 renal) was 6.09 µM and the GI50 (NCI-H460 lung) was 3.03 µM. For the same compound, the TGI (NCI-H460 lung) was 15.6 µM, the GI50 (ACHN renal) was 4.94 µM and the TGI (ACHN renal) was 32 µM. It also gave a GI50 (UACC-62 melanoma) of 1.86 µM, a TGI (UACC-62 melanoma) of 11.5 µM and a GI50 (KM12 colon) of 2.86 µM. The TGI (KM12 colon) was 18.7 µM, the GI50 (A549 NSCLC) was 5.59 µM and the TGI (A549 NSCLC) was 90.3 µM. It also gave a GI50 (NCI/ADR-RES ovarian) of 4.34 µM, a TGI (NCI/ADR-RES ovarian) of 50.1 µM and a GI50 (T-47D breast) of 3.31 µM. The TGI (T-47D breast) was 30.1 µM, the GI50 (SR leukemia) was 1.19 µM and the TGI (SR leukemia) was > 100 µM. The GI50 (K-562 leukemia) was 1.07 µM, the TGI (K-562 leukemia) was > 100 µM and the GI50 (PC-3 prostate) was 2.62 µM. It also gave a TGI (PC-3 prostate) of 22.7 µM, a GI50 (HCT-116 colon) of 3.7 µM and a TGI (HCT-116 colon) of 23.7 µM. For the same compound, the GI50 (NCI-H23 lung) was 2.81 µM, the TGI (NCI-H23 lung) was 13 µM and the GI50 (HOP-62 NSCLC) was 4.52 µM. For the same compound, the TGI (HOP-62 NSCLC) was 26.2 µM, the GI50 (OVCAR-3 ovarian) was 2.9 µM and the TGI (OVCAR-3 ovarian) was 10.6 µM. It also gave a GI50 (OVCAR-5 ovarian) of 4.61 µM, a TGI (OVCAR-5 ovarian) of 30.6 µM and a GI50 (786-0 renal) of 4.23 µM. For the same compound, the TGI (786-0 renal) was 25.4 µM, the GI50 (DU-145 prostate) was 4.23 µM and the TGI (DU-145 prostate) was 21.8 µM. It also gave a GI50 (MCF7 breast) of 1.22 µM, a TGI (MCF7 breast) of 13.5 µM and a GI50 (BT-549 breast) of 4.19 µM. The TGI (BT-549 breast) was 24.8 µM, the GI50 (HCC-2998 colon) was 6.26 µM and the TGI (HCC-2998 colon) was 23.7 µM. The GI50 (MOLT-4 leukemia) was 3.73 µM, the TGI (MOLT-4 leukemia) was > 100 µM and the GI50 (CAKI-1 renal) was 1.29 µM. For the same compound, the TGI (CAKI-1 renal) was 19.5 µM, the GI50 (SN12C renal) was 4.5 µM and the TGI (SN12C renal) was 22.8 µM.
